Values quoted from earlier work as cited in patent US10702606B2, “Peptide composition” (MENICON CO., LTD., priority 2015, dated 2020).
Where two headings read alike, the source gives them in different places.

pKa (25° C., only a pKa of 3.5 or more and less than 7.5 is described): 7.1 | pKa (buffering agent, temperature not given): 7.1
SMILES: NCCN [Ethylenediamine, ethylenediamine]
